Reference: article PMC12013366, “In vitro evaluation of the immunogenic potential of gramicidin S and its photocontrolled analogues” (RSC Medicinal Chemistry, 2025)
Non-standard residues stand in square brackets, D forms with d. Residues, ends and D or L forms follow the SMILES beside them. Orn = NCCC[C@H](N)C(=O)O

Experiments:
HeLa spheroids = test: Cytotoxicity, three-dimensional (spheroid) assay; type: cell-based; details: human
Excerpt: (§1) For the experiments with the three-dimensional (3D) cultures, we used a 384-well plate format and applied the protocol introduced by Sirenko et al.,[35] with a few modifications. First, we used the ultra-low adhesion plates to ensure reproducible spheroid formation. Second, we decided to co-stain the cells with calcein-AM to obtain more information on the processes occurring in spheroids upon the addition of cytolytic peptides. Calcein-AM stains metabolically active cells and helps to identify the fraction of necrotic cells that is essential for the accurate determination of the IC50 values (Fig. 3). Three time points of incubation of spheroids with the peptides (10 min, 24 h and 72 h) were chosen for the experiments. The IC50 values and the closed/open isomer activity ratios (Table 2) were calculated, as in the monolayer cell culture experiments.
(§2) Essential experimental details have been previously published by us.[79]
(§3) The cells were maintained identically to a 2D cell culture protocol. After counting, the cells were seeded in 50 μL of medium in an ultralow attachment U-bottom black-wall 384-well plate (3830, Corning). The seeding density was chosen to obtain spheroids after 48 h of incubation that are compact enough to fit into 20× objective field of view (<800–1000 μm in diameter) after incubation with compounds. We seeded 2000 cells per well for 4T1 and 1000 cells per well for HEK-293, HeLa, HepG2, LLC and MDA-MB-231. After seeding, the plate was centrifuged at 40 g for 30 s and additionally shaken at 250 rpm for 1 min to shake all the cells off the walls of a well. After 48 h, the compounds were dispensed in 20 μL of medium (500, 100, 50, 5 and 1 μM for closed peptide photoforms; 100, 50, 10, 1 and 0.5 μM for open photoforms and GS). At 10 min, 24 h and 72 h post addition of compounds, the staining solution consisting of 112.5 μM of Hoechst 33342, 4.5 μM of calcein-AM (C1430, Thermo Fisher), 13.5 μM of propidium iodide and 10% of FBS in DPBS was added in 20 μL for 2 h. The fluorescent imaging was conducted in the confocal mode with a 20× objective lens and z-stack of 12–15 images with a 10 μm step. The collected data were processed using INCarta 1.13 and analyzed using GraphPad Prism 10.

[1] = Cytotoxicity, three-dimensional (spheroid) assay; type: cell-based; details: human, HEK-293 spheroids, calcein-AM/PI/Hoechst 33342 confocal imaging, Table S3 (with LMB033), ± SEM, n=5, read-out: IC50, cytotoxic activity, three-dimensional (spheroid) assay
Excerpt: as §1, §2, §3

For `CC(C)C[C@@H]1NC(=O)[C@H](CCCN)NC(=O)[C@H](C(C)C)NC(=O)[C@@H]2CCCN2C(=O)[C@@H](Cc2ccccc2)NC(=O)[C@H](CC(C)C)NC(=O)[C@H](CCCN)NC(=O)[C@H](C(C)C)NC(=O)[C@@H]2CCCN2C(=O)[C@@H](Cc2ccccc2)NC1=O` [Gramicidin S, gramicidin S] (cyclo(V[Orn]L[dF]PV[Orn]L[dF]P)), the IC50 (HeLa spheroids; 10 min) was 2.9 ± 1.5 µM, the IC50 (HeLa spheroids; 24 h) was 2.9 ± 1.6 µM and the IC50 at 10 min ([1]; 10 mins incubation) was 14.3 ± 11.6 µM. It also gave an IC50 at 24 h ([1]; 24 hrs incubation) of 12.9 ± 1.1 µM and an IC50 at 72 h ([1]; 72 hrs incubation) of 9 ± 1.1 µM.
